Measured values as given in patent US7943670B2, “Liquid formulations of ractopamine” (Eli Lilly and Company, priority 2004, dated 2011).
Where a name gives a salt, the structure may show the parent alone. Blank lines part the entries; values can stand above or below the molecule they belong to.

Experiments:
Assay type in all cases: physicochemical
[1] = Solubility determination of ractopamine HCl in liquid agents (visual, 1-dram vials)
Experimental: Solubility determinations are performed in 1-dram vials. Add ractopamine HCl to a vial containing a liquid agent to give a final w/w ratio of 10% ractopamine HCl to liquid agent. Mix the solution vigorously on a vortex mixer for 2 to 6 minutes. After the mixing period, visually, assess whether the ractopamine dissolves in the liquid agent or whether insoluble material (cloudy solution or two distinct phases) remains in the vial. If the solubility is less than 10%, add additional liquid agent to dilute the ractopamine HCl to a 5-8% range. Repeat the mixing procedure and assess whether the ractopamine is soluble in the liquid agent or whether it remains insoluble at the lower concentration. Apply heat (from room temperature up to 60° C.) as needed to aid solubilization. Allow heated samples to cool to room temperature to assess solubility by visual observation for precipitant or cloudiness.

[2] = Chemical stability on storage: related substances by chromatogram comparison
[3] = Physical stability on storage (precipitation / remaining in solution); conditions: for Comment: physical stability on storage: 10% ractopamine; for physical stability on storage: 5° C. storage
[4] = Solubility of ractopamine (water, PG, PEG vehicle systems)

Solubility @ RT ([1]; 1,3 Dioxolane): <5% | Solubility @ RT ([1]; 1-Butanol): <10% | Solubility @ RT ([1]; 1-Methyl-2-Pyrrolidinone (Pharmasolve)): <5% | Solubility @ RT ([1]; 2-Pyrrolidone (2-Pyrol)): ≦5% | Solubility @ RT ([1]; 4-Methyl-1-3Dioxolane): <5% | Solubility @ RT ([1]; Acetaldehyde Phenethyl Propyl Acetal (Acetal R)): <10% | Solubility @ RT ([1]; Acetic Acid Glacial (50% solution)): ≧10% | Solubility @ RT ([1]; Acetone): <10% | Solubility @ RT ([1]; Acetophenone): <10% | Solubility @ RT ([1]; Agrimax 3 (2-pyrrolidinone, 1-Octyl 2-Pyrrolidinone, 1-Ethenylhexadecyl-, Homopolymer Sulfuric Acid Monododecyl Ester Sodium Salt)): <5% | Solubility @ RT ([1]; AgsolEx 8): <5% | Solubility @ RT ([1]; Amyl Acetate): <5% | Solubility @ RT ([1]; Aromatic 100): <5% | Solubility @ RT ([1]; Aromatic 200 (SC Solvent 200)): <5% | Solubility @ RT ([1]; Benzoic Acid (0.3% solution)): <10% | Solubility @ RT ([1]; Benzyl Alcohol): ≧5% | Solubility @ RT ([1]; Block Copolymer Pluronic L31): ≦10% | Solubility @ RT ([1]; Block Copolymer Pluronic L61, 50/50 water): ≧10% | Solubility @ RT ([1]; Block Copolymer Pluronic L61, Neat (Viscous)): ≦10% | Solubility @ RT ([1]; Caprylic/Capric Triglycerides, BP, FP (Labrafac CC)): <5% | Solubility @ RT ([1]; Caprylic/capric triglyceride (Migylol 810)): <8% | Solubility @ RT ([1]; Centrapour Clear Fry Oil): <5% | Solubility @ RT ([1]; Citric Acid (50% solution)): <5% | Solubility @ RT ([1]; Corn Oil (Mazzola)): <8% | Solubility @ RT ([1]; Cyclohexanone): <10% | Solubility @ RT ([1]; D-Gluconic Acid): <10% | Solubility @ RT ([1]; D-Glucuronic Acid (20% solution)): <5% | Solubility @ RT ([1]; Dichloromethane): <10% | Solubility @ RT ([1]; Diethylene Glycol): ≧10% | Solubility @ RT ([1]; Diethylenetriamine (DETA)): ≧10% | Solubility @ RT ([1]; Dimethyl Isosorbide): <8% | Solubility @ RT ([1]; Dipropylene glycol n-butyl ether): <10% | Solubility @ RT ([1]; Ethanolamine): ≧10% | Solubility @ RT ([1]; Ethyl Acetate): <5% | Solubility @ RT ([1]; Ethyl Alcohol): <10% | Solubility @ RT ([1]; Ethyl Lactate): <5% | Solubility @ RT ([1]; Ethylene Glycol): ≧10% | Solubility @ RT ([1]; Ethylenediamine): ≧20% | Solubility @ RT ([1]; Forward DC): <5% | Solubility @ RT ([1]; Fumaric Acid): <5% | Solubility @ RT ([1]; Gamma Butylactone): <5% | Solubility @ RT ([1]; Glutamic Acid (20% solution)): <5% | Solubility @ RT ([1]; Glycerol Formal): ≦5% | Solubility @ RT ([1]; Glyceryl and polyethylene glycol esters (Labrasol)): <5% | Solubility @ RT ([1]; Glycol Ether PM): <5% | Solubility @ RT ([1]; Hexane): <5% | Solubility @ RT ([1]; Hydroxypropyl β-Cyclodextrin (Trappsol)): <10% | Solubility @ RT ([1]; Isophorone): <10% | Solubility @ RT ([1]; Isopropyl Myristrate (Emerest 2314)): <8% | Solubility @ RT ([1]; L-Malic Acid (20% solution)): <5% | Solubility @ RT ([1]; L-Tartaric Acid 20% solution): <5% | Solubility @ RT ([1]; Lactic Acid (85% solution)): ≦10% | Solubility @ RT ([1]; Maleic Acid (20% Solution)): ≦10% | Solubility @ RT ([1]; Malonic Acid): ≧5% | Solubility @ RT ([1]; Medium chain triglyceride (Migylol 812)): <8% | Solubility @ RT ([1]; Methanol): ≧10% | Solubility @ RT ([1]; Methyl Caprylate-Caprate (Emery 2209)): <8% | Solubility @ RT ([1]; Methyl Oleate (Emery 2301)): <8% | Solubility @ RT ([1]; Mineral Oil, QA246U): <5% | Solubility @ RT ([1]; Mono-diglyceride of caprylic/capric fatty acids (Capmul MCM)): <8% | Solubility @ RT ([1]; Monomethylated Polyethylene Glycol MPEG 350, 50/50 water): ≧10% | Solubility @ RT ([1]; Monomethylated Polyethylene Glycol MPEG 350, Neat): ≦10% | Solubility @ RT ([1]; Monomethylated Polyethylene Glycol MPEG 550, 50/50 water): ≧10% | Solubility @ RT ([1]; Monomethylated Polyethylene Glycol MPEG 550, Neat): ≦10% | Solubility @ RT ([1]; N,N, Dimethylacetamide): <5% | Solubility @ RT ([1]; Nonylphenol Ethoxylate, POE-10 (Makon 10)): <5% | Solubility @ RT ([1]; Oleic Acid (Priolene 6933)): <5% | Solubility @ RT ([1]; Oleoyl Macrogolglycerides EP (Labrafil M 1944 CS)): <5% | solubility ([1]; PCO to water 50:50 w/w): greater than 10% | solubility ([1]; PSO to water 50:50 w/w): greater than 10% | Solubility @ RT ([1]; Petroleum Ether): <5% | Solubility @ RT ([1]; Petroleum distillates (naphtha), Panasol AN-2K): <5% | Solubility @ RT ([1]; Phosphoric Acid (85% Solution)): <5% | Solubility @ RT ([1]; Polyethylene Glycol Dimethyl Ether (DMPEG-350)): <5% | Solubility @ RT ([1]; Polyethylene Glycol PEG 200, 50/50 water): ≧10% | Solubility @ RT ([1]; Polyethylene Glycol PEG 200, Neat): ≦10% | Solubility @ RT ([1]; Polyethylene Glycol PEG 300, 50/50 water): ≧10% | Solubility @ RT ([1]; Polyethylene Glycol PEG 300, Neat): ≦10% | Solubility @ RT ([1]; Polyethylene Glycol PEG 400, Neat (Viscous)): ≦10% | Solubility @ RT ([1]; Polyglycol P-2000): <5% | Solubility @ RT ([1]; Polyoxyethylene-20-Sorbitan Monolaurate (Tween 20), 50/50 water): ≧10% | Solubility @ RT ([1]; Polyoxyethylene-20-Sorbitan Monolaurate (Tween 20), Neat (Viscous)): ≦10% | Solubility @ RT ([1]; Polyoxyethylene-20-Sorbitan Monooleate (Tween 80), 50/50 water): ≧10% | Solubility @ RT ([1]; Polyoxyethylene-20-Sorbitan Monooleate (Tween 80), Neat (Viscous)): ≦10% | Solubility @ RT ([1]; Polyoxyl 35 Castor Oil (Cremophor EL), 50/50 water): ≧10% | Solubility @ RT ([1]; Polyoxyl 35 Castor Oil (Cremophor EL), Neat (Viscous)): ≦10% | Solubility @ RT ([1]; Propionic Acid (20% solution)): ≧10% | Solubility @ RT ([1]; Propylene Carbonate): <5% | Solubility @ RT ([1]; Propylene Glycol Laurate (Lauroglycol FCC)): <5% | Solubility @ RT ([1]; Propylene glycol diester of caprylic/capric acid (Migylol 840)): <8% | Solubility @ RT ([1]; Soybean Oil Methyl Ester (Soy Gold 2000)): <8% | Solubility @ RT ([1]; Succinic Acid (5% Solution)): <5% | Solubility @ RT ([1]; Sunflower Oil (Wesson)): <8% | Solubility @ RT ([1]; Tetrahydrfurfuryl Alcohol (THFA)): ≦10% | Solubility @ RT ([1]; Tetrahydrofuran (THF)): <10% | Solubility @ RT ([1]; Toulene): <10% | Solubility @ RT ([1]; Triacetin): <5% | Solubility @ RT ([1]; Trichloroethylene): <10% | Solubility @ RT ([1]; Triglyceride of caprylic/capric and succinic acid (Migylol 829)): <8% | Solubility @ RT ([1]; β-Cyclodextrin Sulfbutyl Ether 7 Sodium Salt 20% Solution (Captisol)): <10% | Comment: stability ([2]; Acetic Acid Glacial (50% solution), buffered 10% formulation, generation of new related subs in stability storage): Stability discontinued | Comment: stability ([2]; Lactic Acid (85% solution), 10% formulation by heating and buffering pH, generation of new related subs in stability storage): Stability discontinued | Comment: new related sub peaks in stability studies ([2]; MPEG solvents (MPEG 350, 550)): number of new related sub | Comment: reaction with solvent ([2]; Methanol, forms methoxy ractopamine related substance): Methanol reacts with | Comment: new related sub peaks in stability studies ([2]; PEG solvents (PEG 200, 300)): number of new related sub | Comment: new related substance peaks in stability studies ([2]; Pluronic L61 to water at 50/50, 10% ractopamine): a number of new related | Comment: stability ([2]; Propionic Acid (20% solution), generated a number of large related sub peaks): Stability discontinued - | Comment: physical stability on storage ([3]; Polyoxyethylene 20 Sorbitan Monolaurate to water below 50/50, prolonged storage at 5° C.): below 50/50 precipitate after | Comment: physical stability on storage ([3]; Polyoxyethylene-20-Sorbitan Monooleate to water below 50/50, prolonged storage at 5° C.): below 50/50 precipitate after | Comment: physical stability on storage ([3]; Polyoxyl 35 Castor Oil to water at 50/50, short term (3 months) storage at 5° C.): somewhat viscous and precipitate
Structure (SMILES): CC(CCc1ccc(O)cc1)NCC(O)c1ccc(O)cc1 (stereo not drawn) [ractopamine HCl]

solubility ([1]; PSL to water 50:50 w/w): greater than 10% | new related substances ([2]; aqueous PSL vehicle, storage up to 24 months at 25° C. and 12 months at 40° C.): < 0.2% | new related substances ([2]; aqueous PSO vehicle, storage up to 24 months at 25° C.): < 0.2% | formation of new related substances during storage ([2]; propylene glycol solutions, normal room temperature (~25° C.)): new related substances form slowly | solubility ([4]; 100% propylene glycol (PG) or aqueous vehicle system containing PG): > 25 % w/w | solubility (capable of dissolving) ([4]; vehicle 50% PG and 50% water, 25° C.): at least 10% | concentration achievable in solution ([4]; vehicle system containing PEG 200, PEG 300, or both): > 20% | physical stability on storage ([3]; 10% ractopamine formulations, PSO to water below 50/50 w/w): precipitate out | physical stability on storage ([3]; Ten percent ractopamine formulations, PCO to water below 50/50 w/w): precipitate out
Structure (SMILES): CC(CCc1ccc(O)cc1)NCC(O)c1ccc(O)cc1 (stereo not drawn) [ractopamine]
reaction with solvent ([2]; PEG 200 / PEG 300 vehicle, not reversible under normal storage conditions): form covalently bonded related substances
